Test [1] addresses T1, human dipeptidyl peptidase III (hDPP III) (Homo sapiens, UniProt Q9NY33).
T1 construct: gene DPP3; C-terminally truncated human DPP III (His-tag removed by TEV)
T1 sequence (Q9NY33 1-726 limits assumed): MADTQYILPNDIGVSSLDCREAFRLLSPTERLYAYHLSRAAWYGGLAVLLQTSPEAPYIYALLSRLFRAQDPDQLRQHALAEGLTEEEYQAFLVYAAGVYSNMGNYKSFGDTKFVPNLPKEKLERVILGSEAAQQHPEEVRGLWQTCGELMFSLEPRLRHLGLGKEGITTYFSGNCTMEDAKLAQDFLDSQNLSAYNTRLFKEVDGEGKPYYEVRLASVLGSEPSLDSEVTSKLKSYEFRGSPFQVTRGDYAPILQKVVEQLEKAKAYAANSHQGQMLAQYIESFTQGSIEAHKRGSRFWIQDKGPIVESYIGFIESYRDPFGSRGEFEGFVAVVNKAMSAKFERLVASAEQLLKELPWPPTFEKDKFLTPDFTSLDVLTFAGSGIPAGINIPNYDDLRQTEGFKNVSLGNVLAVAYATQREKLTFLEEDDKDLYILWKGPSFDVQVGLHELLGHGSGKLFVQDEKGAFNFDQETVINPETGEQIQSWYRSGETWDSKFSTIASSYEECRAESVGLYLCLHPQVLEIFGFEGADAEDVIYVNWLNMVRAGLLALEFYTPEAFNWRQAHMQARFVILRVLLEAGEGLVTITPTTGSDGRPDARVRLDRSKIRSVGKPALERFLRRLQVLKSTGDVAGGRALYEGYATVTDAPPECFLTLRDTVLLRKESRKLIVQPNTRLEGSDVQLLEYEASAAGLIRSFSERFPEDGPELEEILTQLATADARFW
Briefly: spectrophotometric enzyme assay, % inhibition at […], purified hDPP III. The conditions noted are these: for inhibition at 10 µM: read-out: DPP III Inh. (%). It counts as biochemical.

For test [2], the target named is T1, human dipeptidyl peptidase III (hDPP III). Briefly: spectrophotometric enzyme assay with Arg2-2NA substrate, purified hDPP III. It counts as biochemical. The conditions noted are these: read-out: DPP III Inh. (%).

Turning to `O=C(c1ccccc1)c1cc2cc(O)ccc2oc1=O` [compound 10, 3-benzoyl; 6-hydroxy (substituted 2H-chromen-2-one)], the inhibition at 10 µM in test [1] was determined as 67.5%. In the case of `O=C(c1ccccc1)c1cc2ccc(O)cc2oc1=O` [compound 12, 3-benzoyl-7-hydroxy-2H-chromen-2-one], the IC50 in test [2] was 1100 ± 50 nM.

As for `N#Cc1cc2cc(O)ccc2oc1=O` [compound 18, 3-cyano; 6-hydroxy (substituted 2-oxo-2H-chromene-3-carbonitrile)], the inhibition at 10 µM in test [1] amounted to 44.6%.

As to `COC(=O)c1cc2ccc(O)cc2oc1=O` [compound 36, methyl 7-hydroxy-2-oxo-2H-chromene-3-carboxylate], the IC50 in test [2] is 2140 ± 60 nM. As to `CCOC(=O)c1cc2cc(O)ccc2oc1=O` [compound 27, 3-ethoxycarbonyl; 6-hydroxy (substituted 2H-chromen-2-one)], in test [1] (10 µM), the “DPP III Inh. (%)” value is reported as 66.0. Consider `N#Cc1cc2cccc(O)c2oc1=O` [compound 21, 3-cyano; 8-hydroxy (substituted 2-oxo-2H-chromene-3-carbonitrile)], for which the inhibition at 10 µM in test [1] came out at 62.6%.

These data come from article PMC8229952, “Coumarin Derivatives Act as Novel Inhibitors of Human Dipeptidyl Peptidase III: Combined In Vitro and In Silico Study” (Pharmaceuticals, 2021).
